From patent publication US20260226084A1, “DUAL RAF AND TUBULIN INHIBITORS AND METHODS OF USE THEREOF” (Deciphera Pharmaceuticals, LLC, priority 2023, published 2026)
Like-named read-outs stand apart in the source and are kept apart here.

Assays:
[1] = tested on: HPAF-II cells; assay: HPAF-II Cell Proliferation Assay; assay type: cell-based; conditions: Homo sapiens
Procedure, shortened: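 Viability read-out was resazurin fluorescence (540 nm excitation, 600 nm emission), developed 18–24 h after a 115–120 h compound exposure of 750 HPAF-II cells per well in MEM/10% FBS at 37 °C. Compound was tested as a serial dilution in triplicate, and IC50 values were calculated.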

[2] = tested on: tubulin polymerization in HCT-116 cells; assay: Cellular Tubulin Polymerization Assay; assay type: cell-based; conditions: Homo sapiens, Table 5, read-out: Tubulin Cellular
Description: HCT-116 cells (catalog #CCL-247) are obtained from the American Type Culture Collect (ATCC, Manassas, VA). Briefly, cells are grown in McCoy's 5A supplemented with 10% characterized fetal bovine serum (Invitrogen, Carlsbad, CA) and 1% Penicillin/Streptomycin/L-Glutamine at 37° C., 5% CO2, and 95% humidity. Cells are expanded until reaching 70-95% confluency at which point they are subcultured or harvested for assay use. 450000 cells are added per well in 1500 μL complete growth medium in a tissue culture treated, 12-well plate. Plates are incubated for 18 to 24 h at 37° C., 5% CO2, and 95% humidity. At the end of the incubation, 2000 μL of base culture media is added to each well, followed by a serial dilution of compound. Plates are incubated for an additional 1 h at 37° C., 5% CO2, and 95% humidity. Lysates are generated by the addition of 100 μL Lysis and Microtubule Stabilization Buffer 1 (LMS01, Cytoskeleton Inc, Denver, CO) supplemented with GTP (BST06, Cytoskeleton Inc), ATP (BSA04, Cytoskeleton Inc), and Protease Inhibitor Cocktail Stock (PIC02, Cytoskeleton Inc). Cells are scraped off wells using a rubber cell scraper and collected in a clean 96-well plate. Lysates are centrifuged at 1000×g, 37° C. for 10 min and supernatant fraction is placed into an additional 96-well plate. The remaining pellet fraction is reconstituted in 100 μL LMS01 buffer and sonicated for 10 min. Pellet and Supernatant fractions are probed for α-tubulin via western blot analysis on the Jess System or equivalent (Bio-techne, Minneapolis, MN). Data is analyzed using Prism software (Graphpad, San Diego, CA) to calculate IC50values.

[3] = tested on: MiaPaca-2 cells; assay: MiaPaca-2 Cell Proliferation Assay; assay type: cell-based; conditions: Homo sapiens
Procedure, shortened: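 Viability was read as resazurin fluorescence (540 nm excitation, 600 nm emission) after 5–6 h with dye. Compounds were tested as serial dilutions in triplicate, with IC50 derived from the dose–response.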

[4] = tested on: HCT-116 cells; assay: HCT-116 Cell Proliferation Assay; assay type: cell-based; conditions: Homo sapiens
Procedure, shortened: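 IC50 values come from resazurin fluorescence (540 nm excitation, 600 nm emission) added for 4 to 5 h after compound treatment. Treatment: serially diluted compound in triplicate on 375 HCT-116 cells per well in complete McCoy's 5A/10% FBS, 67 to 72 hours, 37 °C, 5% CO2.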

[5] = target: T1, B-Raf kinase (SEQ ID NO: 1) (Homo sapiens, UniProt P15056); assay: Biochemical Assay for B-Raf (coupled pyruvate kinase/lactate dehydrogenase assay)
T1 construct: GST (N); purchased Sigma

[6] = tested on: Pa16c cells; assay: Pa16c Cell Proliferation Assay; assay type: cell-based; conditions: Table 2, read-out: Inhibition of cell proliferation in Pa16c (IC50 class)
Procedure, shortened: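 Proliferation read-out: resazurin fluorescence (540 nm excitation, 600 nm emission) after an extra 18 to 24 h. Before that, compound dilution series (triplicate) stayed on 750 Pa16c cells/well in complete DMEM/10% FBS for 67 to 72 h at 37° C. IC50 values derived from the curves.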

[7] = target: T2, Porcine Brain Tubulin (Sus scrofa, UniProt P02550+P02554); assay: Biochemical Tubulin Polymerization Assay
T2 construct: Porcine Brain Tubulin (T240); purchased Cytoskeleton, Inc T240; BK011P; host or cells: porcine brain (tissue-purified)

[8] = target: T3, C-Raf kinase (SEQ ID NO: 2) (Homo sapiens, UniProt P04049, Y340D/Y341D); assay: Biochemical Assay for C-Raf (coupled pyruvate kinase/lactate dehydrogenase assay)
T3 construct: C-Raf residues 306-end; Y340D, Y341D with; GST (N); purchased Sigma

[9] = Table 5, HPAF-II mutant KRAS pancreatic cancer cell line, read-out: HPAF-II
[10] = MIA PaCa-2, Table 5, MiaPaca-2 mutant KRAS pancreatic cancer cell line, read-out: MiaPaca-2
[11] = Table 5, HCT-116 mutant KRAS colorectal cancer cell line, read-out: HCT-116

T3 sequence (P04049 307-648 Y340D/Y341D): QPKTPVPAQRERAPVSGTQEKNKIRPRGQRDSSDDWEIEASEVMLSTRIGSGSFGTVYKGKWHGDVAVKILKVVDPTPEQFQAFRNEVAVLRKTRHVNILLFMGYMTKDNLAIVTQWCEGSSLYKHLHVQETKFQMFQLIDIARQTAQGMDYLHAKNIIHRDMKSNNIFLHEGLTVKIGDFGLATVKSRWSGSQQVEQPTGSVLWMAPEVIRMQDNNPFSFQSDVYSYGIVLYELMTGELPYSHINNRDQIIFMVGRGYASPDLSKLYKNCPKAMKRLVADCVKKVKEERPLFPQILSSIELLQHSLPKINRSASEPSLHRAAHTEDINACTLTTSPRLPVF
T1 sequence (P15056 416-766): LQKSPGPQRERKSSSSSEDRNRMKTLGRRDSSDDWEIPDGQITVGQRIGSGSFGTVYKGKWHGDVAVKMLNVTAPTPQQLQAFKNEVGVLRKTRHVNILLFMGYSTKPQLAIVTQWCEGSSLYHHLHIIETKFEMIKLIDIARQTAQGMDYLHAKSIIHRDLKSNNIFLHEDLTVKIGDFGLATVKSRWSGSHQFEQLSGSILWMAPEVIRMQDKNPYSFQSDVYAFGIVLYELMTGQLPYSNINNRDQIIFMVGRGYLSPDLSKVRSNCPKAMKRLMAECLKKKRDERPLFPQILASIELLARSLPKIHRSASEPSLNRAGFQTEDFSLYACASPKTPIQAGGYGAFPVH
T2 sequence (P02550 whole entry): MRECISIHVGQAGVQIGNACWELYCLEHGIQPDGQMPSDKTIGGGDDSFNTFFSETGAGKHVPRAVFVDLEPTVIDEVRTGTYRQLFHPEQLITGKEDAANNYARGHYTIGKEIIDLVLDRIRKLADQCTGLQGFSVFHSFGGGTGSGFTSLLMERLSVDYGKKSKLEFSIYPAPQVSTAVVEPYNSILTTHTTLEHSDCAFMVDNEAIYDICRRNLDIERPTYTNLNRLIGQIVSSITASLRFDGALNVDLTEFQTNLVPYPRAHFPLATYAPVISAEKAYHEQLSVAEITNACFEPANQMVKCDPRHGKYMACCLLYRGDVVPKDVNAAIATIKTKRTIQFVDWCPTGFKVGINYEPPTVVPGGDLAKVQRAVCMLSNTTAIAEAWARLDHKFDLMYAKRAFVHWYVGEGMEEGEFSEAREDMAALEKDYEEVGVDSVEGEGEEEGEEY
T2 sequence (P02554 whole entry): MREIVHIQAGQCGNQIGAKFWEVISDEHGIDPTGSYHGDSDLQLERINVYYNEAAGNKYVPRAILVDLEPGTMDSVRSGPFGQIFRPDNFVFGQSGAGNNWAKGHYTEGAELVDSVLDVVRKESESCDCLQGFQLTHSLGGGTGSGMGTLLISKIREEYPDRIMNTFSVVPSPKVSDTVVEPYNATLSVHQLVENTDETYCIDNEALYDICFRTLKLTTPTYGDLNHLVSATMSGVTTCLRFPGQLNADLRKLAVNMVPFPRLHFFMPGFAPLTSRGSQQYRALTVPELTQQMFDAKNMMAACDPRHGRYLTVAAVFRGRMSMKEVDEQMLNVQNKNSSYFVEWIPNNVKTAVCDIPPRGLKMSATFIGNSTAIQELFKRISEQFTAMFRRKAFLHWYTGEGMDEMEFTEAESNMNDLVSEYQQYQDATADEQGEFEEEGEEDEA

`Cc1ccc(NC(=O)N2CC[C@@H](CC(F)(F)F)C2)cc1-c1cc(N[C@H](C)CO)nc(N2CCOCC2)c1` [Exarafenib, reference compound] gave an IC50 [1, 9] of 1 to 10 µM, an IC50 [2] of 1 to 10 µM and an IC50 [3, 10] of 1 to 10 µM. It also gave an IC50 [4, 11] of 0.5 to 1 µM.
Compound `C[C@@H](NC(=O)c1ncnc(N)c1Cl)c1ncc(C(=O)Nc2cc(C(F)(F)F)c(Cl)cn2)s1` [Tovorafenib, reference compound] has an IC50 [1, 9] of 1 to 10 µM, an IC50 [2] of 1 to 10 µM and an IC50 [3, 10] of 1 to 10 µM. For the same compound, the IC50 [4, 11] was 1 to 10 µM.
`CCCS(=O)(=O)Nc1ccc(F)c(C(=O)c2c[nH]c3ncc(-c4ccc(Cl)cc4)cc23)c1F` [Vemurafenib, vemurafenib] gave an IC50 [2] of 1 to 10 µM.
Work on `CC(C)(C)c1nc(-c2cccc(NS(=O)(=O)c3c(F)cccc3F)c2F)c(-c2ccnc(N)n2)s1` [Dabrafenib, dabrafenib] yielded an IC50 [2] of 1 to 10 µM.
In the case of `Cc1ccc(NC(=O)c2cc(C(F)(F)F)cnn2)cc1-c1cc(N[C@H](C)CO)nc(-c2cn[nH]c2)c1` [Example 119], the IC50 ([5]; 1 mM ATP, read-out: BRAF (inhibition of biochemical activity, IC50)) is reported as under 0.1 µM, the IC50 ([5]; Table 3, read-out: BRAF (IC50 class)) is reported as under 0.1 µM and the IC50 ([1]; HPAF-II, HPAF-II cells, Table 2, read-out: Inhibition of cell proliferation in HPAF-II (IC50 class)) is reported as under 0.1 µM. For the same compound, the IC50 ([1]; HPAF-II, Table 3, read-out: HPAF-II (IC50 class)) was under 0.1 µM, the IC50 [6] was under 0.1 µM and the IC50 ([7]; Table 3, Tubulin Biochemical assay, read-out: Tubulin Biochem (IC50 class)) was under 3 µM. It also gave an IC50 ([8]; 1 mM ATP, read-out: CRAF (inhibition of biochemical activity, IC50)) of under 0.1 µM, an IC50 ([8]; Table 3, read-out: CRAF (IC50 class)) of under 0.1 µM and an IC50 ([3]; MIA PaCa-2, MiaPaca-2 cells, Table 2, read-out: Inhibition of cell proliferation in MiaPaca-2 (IC50 class)) of under 0.1 µM. It also gave an IC50 ([3]; MIA PaCa-2, Table 3, read-out: MiaPaca-2 (IC50 class)) of under 0.1 µM, an IC50 ([4]; HCT-116, HCT-116 cells, Table 2, read-out: Inhibition of cell proliferation in HCT-116 (IC50 class)) of under 0.1 µM and an IC50 ([4]; HCT-116, Table 3, read-out: HCT-116 (IC50 class)) of under 0.1 µM.
`Cc1ccc2c(Nc3cccc(Cl)c3F)nccc2c1NC(=O)c1csc2c(N)ncnc12` [Belvarafenib, reference compound] gave an IC50 ([5]; Table 5, previously disclosed BRAF/CRAF inhibitors, read-out: BRAF) of under 0.1 µM, an IC50 ([7]; Table 5, previously disclosed BRAF/CRAF inhibitors, read-out: Tubulin Biochem) of over 100 µM and an IC50 ([8]; Table 5, previously disclosed BRAF/CRAF inhibitors, read-out: CRAF) of under 0.1 µM. For the same compound, the IC50 [2] was 1 to 10 µM.
For `Cc1ccc(NC(=O)c2ccnc(C(F)(F)F)c2)cc1-c1cc(OCCO)nc(N2CCOCC2)c1` [Naporafenib], the IC50 [2] was 1 to 10 µM.
